One experiment concerns Bel-7402. Description: Cytotoxicity against human Bel7402 cells after 24 hrs by MTT assay. Particulars: Bel-7402, 24 h. Type of experiment: functional, cell-based. In general terms: Tetrazolium assays rely on reduction of a dye to a coloured formazan, in cell work by metabolically active cells.
In a further experiment the test system is A2780. Kind of experiment: cells. Particulars: Homo sapiens, A2780, 24 h.
A further experiment relates to A549. Description: Cytotoxicity against human A549 cells after 24 hrs by MTT assay. Type of experiment: functional, cell-based. Particulars: A549, 24 h.
The test system of another experiment is BGC-823. Kind of experiment: Cytotoxicity against human BGC823 cells after 24 hrs by MTT assay. Type of experiment: functional, cell-based. Particulars: BGC-823, 24 h.
The test system of a further experiment is HCT-8. Description: Cytotoxicity against human HCT8 cells after 24 hrs by MTT assay. Type of experiment: functional, cell-based. The conditions noted are these: HCT-8, 24 h.
The next experiment relates to Influenza A virus. Description: microbe, parasite or virus in culture. Type of experiment: functional, organism-based. The conditions noted are these: HEK-293T.
The nature of experiment [1]: Antiinflammatory activity in PAF-induced rat Polymorphonuclear leukocyte assessed as inhibition of beta-glucuronidase release at 10^-5 M. Type of experiment: functional.

pIC50: −log10 of the molar value.

Description for A2780: Cytotoxicity against human A2780 cells after 24 hrs by MTT assay

For `CC(C)c1cc2c(cc1O)[C@@]13CCCC(C)(C)[C@@H]1[C@H](OC3=O)C2=O`, the pIC50 in the experiment with Bel-7402, with A2780, with A549, with BGC-823 and in the experiment with HCT-8 was less than 5.00 throughout.
As for `CC(C)C1=C[C@]23O[C@H]2[C@H]2OC(=O)[C@@]4(CCCC(C)(C)[C@H]24)C3=CC1=O`, the pIC50 in the experiment with Bel-7402 is less than 5.00; with A2780 it was 5.77; in the experiment with A549 it was less than 5.00; in the experiment on BGC-823, less than 5.00; in the experiment with HCT-8, less than 5.00.
Consider `CC(C)C1=C[C@]2(O)CC[C@H]3[C@]4(C)CCC[C@]3(C(=O)OC4)C2=CC1=O`, for which the pIC50 in the experiment with Bel-7402, with A2780, in the experiment on A549, in the experiment on BGC-823 and with HCT-8 was less than 5.00 each time.
For the molecule `CCO[C@@H]1OC[C@@]2(C)CCC[C@@]13c1cc(O)c(C(C)C)cc1CC[C@@H]23`, the pIC50 in the experiment with Bel-7402, in the experiment on A2780, in the experiment with A549, in the experiment on BGC-823 and with HCT-8 was less than 5.00 in each case.
On to `CC(C)c1cc2c(cc1O)[C@@]13CCCC(C)(C)[C@@H]1[C@H](OC3=O)[C@@H]2O`, for which the pIC50 with Bel-7402 is less than 5.00; with A2780, less than 5.00; in the experiment with A549, 5.22; with BGC-823, less than 5.00; in the experiment on HCT-8, less than 5.00.
As for `CC(C)c1cc2ccc3c(c2cc1O)C(=O)CCC3(C)C`, the pIC50 with Bel-7402, with A2780, in the experiment with A549, with BGC-823 and in the experiment on HCT-8 was less than 5.00 throughout.
In the case of `CC(C)c1cc2c(cc1O)[C@@]1(O)CCC[C@](C)(CO)[C@@H]1CC2=O`, the pIC50 with Bel-7402, in the experiment on A2780, with A549, in the experiment with BGC-823 and with HCT-8 was less than 5.00 throughout.
On to `CC(C)c1cc2c(cc1O)[C@@]1(O)CCCC(C)(C)[C@@H]1CC2=O`, for which the pIC50 in the experiment on Bel-7402, in the experiment with A2780, with A549, in the experiment on BGC-823 and with HCT-8 was less than 5.00 throughout.
Turning to `CC(C)c1ccc2c(c1)C(=O)C[C@H]1C(C)(C)CCC[C@]21C`, the pIC50 is 5.32 in the experiment with Influenza A virus; less than 5.00 with Bel-7402; less than 5.00 in the experiment with A2780; less than 5.00 in the experiment on A549; less than 5.00 in the experiment on BGC-823; less than 5.00 in the experiment on HCT-8.
Regarding `CC(C)c1cc2c(cc1O)C1=C(CC2)C(C)(C)CC[C@H]1O`, the pIC50 in the experiment with Bel-7402, with A2780, with A549, with BGC-823 and in the experiment on HCT-8 was less than 5.00 in each case.
Take `CCO[C@@H]1OC[C@@]2(C)CCC[C@@]13c1cc(O)c(C(C)C)cc1C(=O)C[C@@H]23`: the pIC50 with Bel-7402, in the experiment on A2780, in the experiment on A549, in the experiment on BGC-823 and in the experiment on HCT-8 was less than 5.00 each time.
For `CC(C)c1cc2c(cc1O)[C@]13CCC[C@](C)(COC1=O)[C@@H]3CC2`, the pIC50 in the experiment with Bel-7402, with A2780, with A549, in the experiment with BGC-823 and in the experiment on HCT-8 was less than 5.00 in each case.
Consider `CC(C)C1=C[C@]23CC[C@H]4[C@]5(C)CCC[C@@]4(C2=CC1=O)[C@@H](OC5)O3`, for which the pIC50 in the experiment with Bel-7402, in the experiment with A2780, in the experiment with A549, with BGC-823 and in the experiment with HCT-8 was less than 5.00 throughout.
On to `CC[C@@]1(O)C(=O)OCc2c1cc1n(c2=O)Cc2cc3ccccc3nc2-1` [CAMPTOTHECIN], for which the pIC50 with A2780 is 6.70; in the experiment with A549, 5.44.
Take `CC(C)c1cc2c(cc1O)[C@@]13CCCC(C)(C)[C@@H]1[C@H](OC3=O)[C@H]2O`: the negative-log IC50 (pIC50) with Bel-7402, in the experiment on A2780, in the experiment with A549, in the experiment on BGC-823 and with HCT-8 was less than 5.00 throughout.
Regarding `CC(C)c1cc2c(cc1O)[C@]13CCC[C@]4(C)CO[C@@H]1O[C@H]2C[C@@H]43`, the pIC50 in the experiment on Bel-7402, in the experiment on A2780, in the experiment with A549, in the experiment on BGC-823 and in the experiment on HCT-8 was less than 5.00 each time. The inhibition at 10 µM in experiment [1] was found to be 59.7%.
With `CC(C)c1cc2c(cc1O)[C@]13CCC[C@](C)(CO[C@@H]1O)[C@@H]3CC2`, the pIC50 in the experiment with Bel-7402, with A2780, in the experiment on A549, in the experiment on BGC-823 and with HCT-8 was less than 5.00 in each case.
Consider `CO[C@@H]1OC[C@@]2(C)CCC[C@@]13c1cc(O)c(C(C)C)cc1CC[C@@H]23`, for which the pIC50 in the experiment on Bel-7402, with A2780, with A549, in the experiment on BGC-823 and in the experiment with HCT-8 was less than 5.00 throughout.
With `CC(C)c1cc2c(cc1O)[C@@]1(C=O)CCCC(C)(C)[C@@H]1CC2`, the pIC50 in the experiment on Bel-7402, in the experiment on A549, in the experiment with BGC-823 and in the experiment with HCT-8 was less than 5.00 throughout. In addition, in experiment [1], the inhibition at 10 µM came out at 65.9%.
As to `CC(C)c1cc2c(cc1O)C1=CC(=O)CC(C)(C)[C@@H]1CC2`, the pIC50 with Bel-7402, in the experiment with A2780, in the experiment with A549, with BGC-823 and in the experiment with HCT-8 was less than 5.00 throughout.
With `CCO[C@@H]1C[C@@H]2C(=CC(=O)CC2(C)C)c2cc(O)c(C(C)C)cc21`, the pIC50 in the experiment on Bel-7402, with A2780, in the experiment on A549, in the experiment on BGC-823 and in the experiment with HCT-8 was less than 5.00 throughout.
For the molecule `CO[C@H]1OC[C@@]2(C)CCC[C@@]13c1cc(O)c(C(C)C)cc1CC[C@@H]23`, the pIC50 in the experiment on Bel-7402, with A2780, in the experiment on A549, in the experiment on BGC-823 and with HCT-8 was less than 5.00 each time.
Take `CC(C)c1cc2c(cc1O)[C@]13CCC[C@](C)(CO[C@H]1O)[C@@H]3CC2`: the pIC50 in the experiment with Bel-7402, with A2780, in the experiment on A549, in the experiment with BGC-823 and with HCT-8 was less than 5.00 each time.
As to `CC(C)c1cc2c(cc1O)[C@H]1CCCC(C)(C)[C@@H]1CC2=O`, the pIC50 in the experiment on Bel-7402, in the experiment with A2780, in the experiment with A549, in the experiment on BGC-823 and with HCT-8 was less than 5.00 in each case. Further, the inhibition at 10 µM in experiment [1] was determined as 56.1%.

For orientation: pIC50 means the negative decadic logarithm of the IC50, by convention in mol/L. A higher pIC50 goes with a low IC50. As usually defined, the inhibition is the drop in the measured response relative to a control, in per cent.

For the origin of these results see ChEMBL document CHEMBL1649339, “Abietane and C20-norabietane diterpenes from the stem bark of Fraxinus sieboldiana and their biological activities” (J Nat Prod, 2010).
